Measurements published in US8871796B2, “Diaryl ether derivatives as notch sparing gamma secretase inhibitors” (Merck Sharp & Dohme Corp., priority 2009, dated 2014).
Read-outs that look alike come from different tables or passages of the source.

Experiment: APP processing: AlphaLisa assay of secreted Aβ40 and Aβ42 from SP4CT cells
Assay type: cell-based
Details: Homo sapiens, SH-SY5Y cells expressing amyloid β protein (SP4CT cells)
Procedure: APP Processing (Assay Quantitates Secreted Aβ Analytes from Cell Lines):
The effect of compounds on the abundance of Aβ40 and Aβ42 peptides generated from SH-SY5Y cells expressing amyloid β protein (SP4CT cells) are determined by an AlphaLisa™ assay. Analogous to an ELISA assay, generation of […] AlphaLisa™ assay requires “donor” and “acceptor” beads to be brought in close proximity by specific antibody recognition of either Aβ40 or Aβ42 peptides. The assay is accomplished by removing media from compound-treated SP4CT cells to two different microplates, followed by the addition of donor beads conjugated with streptavidin binding a biotinylated anti-amyloid β monocolonal antibody (clone 4G8). Acceptor beads directly conjugated with anti-Aβ40 monoclonal antibody (G210) are added to one microplate and anti-Aβ42 monoclonal antibody (12F4) acceptor beads were added to the other. Abundance of Aβ40 and Aβ42 is directly proportional to the luminescent signal generated following excitation of donor beads by laser light.

[1] = read-out: IC50, inhibition of production of Aβ40 peptide
[2] = read-out: IC50, inhibition of production of Aβ42 peptide

Row | Compound | IC50 [1] | IC50 [2]
1 | CCC(O)c1ccc(Oc2cc(-c3cccc(C(C)(C)NS(=O)(=O)CC(F)(F)F)c3)nn2CC)cc1 (centres unmarked) [Example 67, N-[1-(3-{1-ethyl-5-[4-(1-hydroxypropyl)phenoxy]-1H-pyrazol-3-yl}phenyl)-1-methylethyl]-2,2,2-trifluoroethanesulfonamide] | < 0.2 µM | < 0.2 µM
2 | CCn1nc(-c2cccc(C(C)(C)NS(=O)(=O)NC3CCCC3)c2)cc1Oc1ccc(C(F)(F)F)cc1 [Example 13, N-cyclopentyl-N′-[1-(3-{1-ethyl-5-[4-(trifluoromethyl)phenoxy]-1H-pyrazol-3-yl}phenyl)-1-methylethyl]sulfamide] | < 0.2 µM | < 0.2 µM
3 | CCn1nc(-c2cccc(C3(NS(=O)(=O)NCC(F)(F)F)CC3)c2)cc1Oc1ccc(C(F)(F)F)cc1 [Example 36, N-[1-(3-{1-ethyl-5-[4-(trifluoromethyl)phenoxy]-1H-pyrazol-3-yl}phenyl)cyclopropyl]-N′-(2,2,2-trifluoroethyl)sulfamide] | < 0.2 µM | < 0.2 µM
4 | CCn1nc(-c2cccc(C3(NS(=O)(=O)CC4CCC4)CC3)c2)cc1Oc1ccc(C(F)(F)F)cn1 [Example 42, 1-cyclobutyl-N-{1-[3-(1-ethyl-5-{[5-(trifluoromethyl)pyridin-2-yl]oxy}-1H-pyrazol-3-yl)phenyl]cyclopropyl} methanesulfonamide] | < 0.2 µM | < 0.2 µM
5 | CCn1nc(Oc2ccc(C(F)(F)F)cc2F)cc1-c1cccc(C(C)(C)NS(=O)(=O)CC(F)(F)F)c1 [Example 21, N-[1-(3-{1-ethyl-3-[2-fluoro-4-(trifluoromethyl)phenoxy]-1H-pyrazol-5-yl}phenyl)-1-methylethyl]-2,2,2-trifluoroethanesulfonamide] | < 0.2 µM | < 0.2 µM
6 | CCn1nc(Oc2ccc(C(F)(F)F)cc2)cc1-c1cccc(C2(NS(=O)(=O)NCC(F)(F)F)COC2)c1 [Example 101, N-[3-(3-{1-ethyl-3-[4-(trifluoromethyl)phenoxy]-1H-pyrazol-5-yl}phenyl)oxetan-3-yl]-N′-(2,2,2-trifluoroethyl)sulfamide] | < 0.2 µM | < 0.2 µM
7 | CCn1nc(-c2cccc(C(C)(C)NS(=O)(=O)CC(F)(F)F)c2)c(Br)c1Oc1ccc(C(F)(F)F)cc1 [Example 115, N-[2-(3-{4-bromo-1-ethyl-5-[4-(trifluoromethyl)phenoxy]-1H-pyrazol-3-yl}phenyl)propan-2-yl]-2,2,2-trifluoroethanesulfonamide] | < 0.2 µM | < 0.2 µM
8 | CCn1nc(Oc2ccc(C(F)(F)F)cc2)cc1-c1cccc(C2(NS(=O)(=O)NCC(C)C)CC2)c1 [Example 30, N-[1-(3-{1-ethyl-3-[4-(trifluoromethyl)phenoxy]-1H-pyrazo1-5-yl}phenyl)cyclopropyl]-N′-isobutylsulfamide] | < 0.2 µM | < 0.2 µM
9 | CCn1nc(-c2cccc(C(C)(C)NS(=O)(=O)CC(F)(F)F)c2)cc1Oc1ccc(C(C)O)cc1 (centres unmarked) [Example 65, N-[1-(3-{1-ethyl-5-[4-(1-hydroxyethyl)phenoxy]-1H-pyrazol-3-yl}phenyl)-1-methylethyl]-2,2,2-trifluoroethanesulfonamide] | < 0.2 µM | < 0.2 µM
10 | CCn1nc(-c2cccc(C(C)(C)NS(=O)(=O)CC(F)(F)F)c2)c(I)c1Oc1ccc(C(F)(F)F)cc1 [Example 116, N-[2-(3-{1-ethyl-4-iodo-5-[4-(trifluoromethyl)phenoxy]-1H-pyrazol-3-yl}phenyl)propan-2-yl]-2,2,2-trifluoroethanesulfonamide] | < 0.2 µM | < 0.2 µM
11 | CCn1nc(Oc2ccc(C(F)(F)F)cc2)cc1-c1cccc(C2(NS(=O)(=O)NCCC(F)(F)F)COC2)c1 [Example 102] | < 0.2 µM | < 0.2 µM
12 | CCCNS(=O)(=O)NC1Cc2ccc(-c3cc(Oc4ccc(C(F)(F)F)cc4)nn3CC)cc2C1 (centres unmarked) [Example 123, N-(5-{1-ethyl-3-[4-(trifluoromethyl)phenoxy]-1H-pyrazol-5-yl}-2,3-dihydro-1H-inden-2-yl)-N′-propylsulfamide] | < 0.2 µM | < 0.2 µM
13 | CCn1nc(Oc2ccc(C(F)(F)F)cc2)c(Cl)c1-c1cccc(C(C)(C)NS(=O)(=O)CC(F)(F)F)c1 [Example 113, N-[2-(3-{4-chloro-1-ethyl-3-[4-(trifluoromethyl)phenoxy]-1H-pyrazol-5-yl}phenyl)propan-2-yl]-2,2,2-trifluoroethanesulfonamide] | < 0.2 µM | < 0.2 µM
14 | CCn1nc(-c2cccc(C3(NS(=O)(=O)NC4CCCC4)CC3)c2)cc1Oc1ccc(C(F)(F)F)cc1 [Example 35, N-cyclopentyl-N′-[1-(3-{1-ethyl-5-[4-(trifluoromethyl)phenoxy]-1H-pyrazol-3-yl}phenyl)cyclopropyl] sulfamide] | < 0.2 µM | < 0.2 µM
15 | Cn1nc(-c2cccc(C3(NS(=O)(=O)CC(F)(F)F)CC3)c2)cc1Oc1ccc(C(F)(F)F)cc1 [Example 106, 2,2,2-trifluoro-N-[1-(3-{1-methyl-5-[4-(trifluoromethyl)phenoxy]-1H-pyrazol-3-yl}phenyl)cyclopropyl]ethanesulfonamide] | < 0.2 µM | < 0.2 µM
16 | CCn1nc(-c2cccc(C(C)(C)NS(=O)(=O)CC(F)(F)F)c2)cc1Oc1ccc(CNCc2ccccc2)cc1 [Example 79, N-{1-[3-(5-{4-[(benzylamino)methyl]phenoxy}-1-ethyl-1H-pyrazol-3-yl)phenyl]-1-methylethyl}-2,2,2-trifluoroethanesulfonamide] | < 0.2 µM | < 0.2 µM
17 | CCCNS(=O)(=O)NC1(c2cccc(-c3cc(Oc4ccc(C(F)(F)F)cc4)n(CC)n3)c2)CC1 [Example 46, N-[1-(3-{1-ethyl-5-[4-(trifluoromethyl)phenoxy]-1H-pyrazol-3-yl}phenyl)cyclopropyl]-N′-propylsulfamide] | < 0.2 µM | < 0.2 µM
18 | CCn1nc(-c2cccc(C(C)(C)NS(=O)(=O)NC3CCC3)c2)cc1Oc1ccc(C(F)(F)F)cc1 [Example 3, N-cyclobutyl-N′-[1-(3-{1-ethyl-5-[4-(trifluoromethyl)phenoxy]-1H-pyrazol-3-y}phenyl)-1-methylethyl]sulfamide] | < 0.2 µM | < 0.2 µM
19 | O=S(=O)(CC(F)(F)F)NC1(c2cccc(-c3cc(Oc4ccc(C(F)(F)F)cc4)n(Cc4cocn4)n3)c2)COC1 [Example 134, N-(3-{3-[5-(4-trifluoromethylphenoxy)-1-(1,3-oxazol-4-ylmethyl)-1H-pyrazol-3-yl]phenyl}oxetan-3-yl)-2,2,2-trifluoroethanesulfonamide] | < 0.2 µM | < 0.2 µM
20 | CCn1nc(-c2cccc(C(C)(C)NS(=O)(=O)CC(F)(F)F)c2)cc1Oc1ccc(C)cc1 [Example 59, N-(1-{3-[1-ethyl-5-(4-methylphenoxy)-1H-pyrazol-3-yl]phenyl}-1-methylethyl)-2,2,2-trifluoroethanesulfonamide] | < 0.2 µM | < 0.2 µM
21 | O=S(=O)(CC(F)(F)F)NC1(c2cccc(-c3cc(Oc4ccc(C(F)(F)F)cc4)nn3Cc3cocn3)c2)COC1 [Example 135, N-(3-{3-[3-(4-trifluoromethylphenoxy)-1-(1,3-oxazol-4-ylmethyl)-1H-pyrazol-5-yl]phenyl}oxetan-3-yl)-2,2,2-trifluoroethanesulfonamide] | < 0.2 µM | < 0.2 µM
22 | CCn1nc(-c2cccc(C3(NS(=O)(=O)CC(F)(F)F)CC3)c2)cc1Oc1ccc(C(F)(F)F)nc1 [Example 40, N-{1-[3-(1-ethyl-5-{[6-(trifluoromethyl)pyridin-3-yl]oxy}-1H-pyrazol-3-yl)phenyl]cyclopropyl}-2,2,2-trifluoroethanesulfonamide] | < 0.2 µM | < 0.2 µM
23 | CCn1nc(Oc2ccc(C(F)(F)F)cc2)cc1-c1cccc(C2(NS(=O)(=O)NCC3CCC3)COC2)c1 [Example 103] | < 0.2 µM | < 0.2 µM
24 | CCn1nc(-c2cccc(C(C)(C)NS(=O)(=O)CC(F)(F)F)c2)cc1Oc1ccc(CNc2nccs2)cc1 [Example 86, N-{1-[3-(1-ethyl-5-{4-[(1,3-thiazol-2-ylamino)methyl]phenoxy}-1H-pyrazol-3-yl)phenyl]-1-methylethyl}-2,2,2-trifluoroethanesulfonamide] | < 0.2 µM | < 0.2 µM
25 | CCn1nc(-c2cccc(C(C)(C)NS(=O)(=O)CC(F)(F)F)c2)cc1Oc1ccccc1F [Example 7, N-(1-{3-[1-ethyl-5-(2-fluorophenoxy)-1H-pyrazol-3-yl]phenyl}-1-methylethyl)-2,2,2-trifluoroethanesulfonamide] | < 0.2 µM | < 0.2 µM
26 | CCn1nc(-c2cccc(C(C)(C)NS(=O)(=O)CC(F)(F)F)c2)cc1Oc1ccc(C(C)=O)cc1 [Example 69, N-(1-{3-[5-(4-acetylphenoxy)-1-ethyl-1H-pyrazol-3-yl]phenyl}-1-methylethyl)-2,2,2-trifluoroethanesulfonamide] | < 0.2 µM | < 0.2 µM
27 | CCn1nc(-c2cccc(C(C)(C)NS(=O)(=O)CC(F)(F)F)c2)c(C#N)c1Oc1ccc(C(F)(F)F)cc1 [Example 117, N-[2-(3-{4-cyano-1-ethyl-5-[4-(trifluoromethyl)phenoxy]-1H-pyrazol-3-yl}phenyl)propan-2-yl]-2,2,2-trifluoroethanesulfonamide] | < 0.2 µM | < 0.2 µM
28 | CCn1nc(-c2cccc(C(C)(C)NS(=O)(=O)CC(F)(F)F)c2)cc1Oc1ccc(CNC2CCCOC2)cc1 (centres unmarked) [Example 92, N-{1-[3-(1-ethyl-5-{4-[(tetrahydro-2H-pyran-3-ylamino)methyl]phenoxy}-1H-pyrazol-3-yl)phenyl]-1-methylethyl}-2,2,2-trifluoroethanesulfonamide] | < 0.2 µM | < 0.2 µM
